The text below walks through data of EP1770089A1, “Pyranodibenzofuran derivatives with antifungal and antibacterial activity” (priority 2005, dated 2007).

Assay [1] concerns M. tuberculosis RIF resistant (2004/0499). Kind of assay: microbe, parasite or virus in culture. The assay is classed as cell-based. Conditions: Mycobacterium tuberculosis.
Assay [2] has as its system M. tuberculosis INH resistant (2003/1762). The experiment in a line: microbe, parasite or virus in culture. The assay is classed as cell-based. The following applies: Mycobacterium tuberculosis.

Values after ≈ are worked out from the molar mass of the structure shown.

On to `CC1(C)C=Cc2c(ccc3oc4ccccc4c23)O1` [Compound 9, 3,3-dimethyl-3H-benzofuro[3,2-f][1]benzopyran], for which the MIC99 in assay [1] and in assay [2] was 5 µg/mL (≈ 20 µM) each time.

Consider `CC1(C)CCc2c(ccc3oc4ccccc4c23)O1` [Compound 16, 1,2-dihydro-3,3-dimethyl-3H-benzofuro[3,2-f][1]benzopyran], for which the MIC99 in assay [1] and in assay [2] was 1 µg/mL (≈ 3.96 µM) each time.

Turning to `NNC(=O)c1ccncc1` [INH, isoniazid, reference compound], the MIC99 in assay [1] was determined as 0.1 µg/mL (≈ 0.729 µM); in assay [2] it was 5 µg/mL (≈ 36.5 µM).
